In US20260347353A1, “INDOLIZINE DERIVATIVES FOR TREATING CANCER” (Antares Therapeutics, Inc., priority 2022, published 2026):

Assays:
NUGC3 cells (p53 Y220C) = test: Cell Proliferation Assay (CellTiter-Glo), NUGC3 p53 Y220C; type: cell-based; settings: Homo sapiens, NUGC-3, 120 h, 5 days, read-out: CTG NUGC3 P53 Y220C IC50
Procedure: Inducible p53 Y220C and R273H constructs (Tet-One inducible expression system; Takara) were stably expressed in NCIH1299 cells by lentiviral transduction. NUGC3, A549, BxPC3, T3M4, HuH7, HCC2935, MFE296, NCIH1299, NCIH1299-inducible p53 Y220C, and NCIH1299-inducible p53 R273H cell lines were used for cell proliferation assay. 250-500 cells were seeded in each well of 384 plate and then compounds were dispensed into each well using Echo or Tecan. After 5 days of incubation, equal volume of CellTiter-Glo reagent (G7570; Promega) was added into each well and the plate was incubated at room temperature for 10 minutes with shaking. The luminescent signal was measured by PheraStar microplate reader and IC50 was calculated.

p53 Y220C = p53 Y220C (Homo sapiens, UniProt P04637, Y220C); test: Luciferase Reporter Assay, p53 Y220C (NCIH1299 cells with inducible p53 Y220C and p53 response element-luciferase); type: cell-based; settings: 6 hour compound treatment, read-out: Luc P53 Y220C AC50
Procedure: Luciferase reporter (Luc) driven by p53 response element (LTV-p53-Luc (SKU #: LTLR007); G&P Biosciences) and inducible p53 Y220C construct (Tet-One inducible expression system; Takara) were stably expressed in NCIH1299 cells by lentiviral transduction. The cells were then used for p53 reporter assay. 5,000 cells were seeded in each well of 384 plate and cultured in 0.5 ug/mL doxycycline (D3072; Sigma) containing medium for 24 hours before compound treatment. After 6 hour of compound treatment, equal volume of One-Glo reagent (E6110; Promega) was added to each well and the plate was incubated for 5 minutes with shaking at room temperature. The luciferase activity was immediately measured with PheraStar microplate reader. Luciferase activity was stimulated by 10 uM of a tool compound as positive control and AC50 was calculated.

[1] = target: T1, p53 Y220C mutant protein (amino acid residues 94-293) (Homo sapiens, UniProt P04637, Y220C); test: Surface Plasmon Resonance (SPR) assay, p53 Y220C Kd_kinetic; settings: multi-cycle kinetics, 16 or 20 °C, pH 7.5, 1:1 binding model
T1 construct: p53 Y220C mutant protein (amino acid residues 94-293)
T1 sequence (P04637 94-293, stated change not applied): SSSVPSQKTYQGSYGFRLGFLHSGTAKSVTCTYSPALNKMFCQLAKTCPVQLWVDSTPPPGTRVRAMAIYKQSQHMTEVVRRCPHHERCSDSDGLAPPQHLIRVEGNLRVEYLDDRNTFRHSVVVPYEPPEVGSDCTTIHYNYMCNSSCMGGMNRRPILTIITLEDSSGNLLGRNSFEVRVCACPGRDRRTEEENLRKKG
Procedure: SPR experiments are performed on a Biacore 8K instrument. […] Compounds are 2-fold, 7-point serial diluted; the top concentration varies depending on the potency. Compound binding affinities are measured in the multi-cycle kinetics mode, at 30 μL/min flow rate with 60 seconds association time and 120 seconds dissociation time. The running buffer contains 50 mM Tris, pH 7.5, 100 mM NaCl, 1 mM DTT, 0.01% Brij35, 0.05% Tween-20 and 1% DMSO. The assay temperature is maintained at 16 or 20 °C and data are fit into the 1:1 binding model using the Biacore Insight Evaluation software.

Row | SMILES | IC50 (NUGC3 cells (p53 Y220C)) | AC50 (p53 Y220C) | Kd [1]
1 | CNC(=O)c1cnc(NCc2nc(-c3cc4c(N[C@@H]5CCN(C)C[C@@H]5F)cccn4c3SC(F)(F)F)no2)nc1 [Example 50, 2-({[3-(8-{[(3S,4R)-3-fluoro-1-methylpiperidin-4-yl]amino}-3-[(trifluoromethyl)sulfanyl]indolizin-2-yl)-1,2,4-oxadiazol-5-yl]methyl}amino)-N-methylpyrimidine-5-carboxamide] | 750 to 1500 nM | < 750 nM | < 10 nM
2 | CN1CC[C@@H](Nc2cccn3c(SC(F)(F)F)c(-c4noc([C@@H](CO)NC(=O)C5CC5)n4)cc23)[C@@H](F)C1 [Example 53, N-[(1R)-1-[3-(8-{[(3S,4R)-3-fluoro-1-methylpiperidin-4-yl]amino}-3-[(trifluoromethyl)sulfanyl]indolizin-2-yl)-1,2,4-oxadiazol-5-yl]-2-hydroxyethyl]cyclopropanecarboxamide] | ≥ 3000 nM | ≥ 3000 nM | 10 to 100 nM
3 | CN1CC[C@@H](Nc2cccn3c(SC(F)(F)F)c(-c4noc([C@H](CO)NC(=O)C5CC5)n4)cc23)[C@@H](F)C1 [Example 55, N-[(1S)-1-[3-(8-{[(3S,4R)-3-fluoro-1-methylpiperidin-4-yl]amino}-3-[(trifluoromethyl)sulfanyl]indolizin-2-yl)-1,2,4-oxadiazol-5-yl]-2-hydroxyethyl]cyclopropanecarboxamide] | ≥ 3000 nM | ≥ 3000 nM | 10 to 100 nM
4 | CN1CC[C@@H](Nc2cccn3c(SC(F)(F)F)c(-c4noc(CNC(=O)[C@H]5COCCN5C)n4)cc23)[C@@H](F)C1 [Example 68, (3R)-N-{[3-(8-{[(3S,4R)-3-fluoro-1-methylpiperidin-4-yl]amino}-3-[(trifluoromethyl)sulfanyl]indolizin-2-yl)-1,2,4-oxadiazol-5-yl]methyl}-4-methylmorpholine-3-carboxamide] | ≥ 3000 nM | ≥ 3000 nM | 10 to 100 nM
5 | CN1CC[C@@H](Nc2cccn3c(SC(F)(F)F)c(-c4noc(CNC(=O)[C@@H]5COCCN5C)n4)cc23)[C@@H](F)C1 [Example 69, (3S)—N-{[3-(8-{[(3S,4R)-3-fluoro-1-methylpiperidin-4-yl]amino}-3-[(trifluoromethyl)sulfanyl]indolizin-2-yl)-1,2,4-oxadiazol-5-yl]methyl}-4-methylmorpholine-3-carboxamide] | ≥ 3000 nM | ≥ 3000 nM | 10 to 100 nM
6 | CN1CC[C@@H](Nc2cccn3c(SC(F)(F)F)c(-c4noc(CNC(=O)c5cncs5)n4)cc23)[C@@H](F)C1 [Example 70] | < 750 nM | < 750 nM | < 10 nM
7 | Cc1ncc(C(=O)NCc2nc(-c3cc4c(N[C@@H]5CCN(C)C[C@@H]5F)cccn4c3SC(F)(F)F)no2)o1 [Example 71] | < 750 nM | < 750 nM | < 10 nM
8 | CN1CC[C@@H](Nc2cccn3c(SC(F)(F)F)c(-c4noc(CNC(=O)c5cnco5)n4)cc23)[C@@H](F)C1 [Example 72] | < 750 nM | < 750 nM | < 10 nM
9 | CN1CC[C@@H](Nc2cccn3c(SC(F)(F)F)c(-c4noc(CNC(=O)c5cnc[nH]5)n4)cc23)[C@@H](F)C1 [Example 73] | 750 to 1500 nM | < 750 nM | < 10 nM
10 | CN1CC[C@@H](Nc2cccn3c(SC(F)(F)F)c(-c4noc(CNC(=O)c5ncon5)n4)cc23)[C@@H](F)C1 [Example 74] | 1500 to 3000 nM | 750 to 1500 nM | < 10 nM
11 | CN1CC[C@@H](Nc2cccn3c(SC(F)(F)F)c(-c4noc(CNC(=O)c5ncn[nH]5)n4)cc23)[C@@H](F)C1 [Example 75] | 750 to 1500 nM | 750 to 1500 nM | < 10 nM
12 | CN1CC[C@@H](Nc2cccn3c(SC(F)(F)F)c(-c4noc(CNC(=O)c5ccno5)n4)cc23)[C@@H](F)C1 [Example 76] | 750 to 1500 nM | < 750 nM | < 10 nM
13 | CN1CC[C@@H](Nc2cccn3c(SC(F)(F)F)c(-c4noc(CNC(=O)c5cnc(N)o5)n4)cc23)[C@@H](F)C1 [Example 77] | < 750 nM | < 750 nM | < 10 nM
14 | CN1CC[C@@H](Nc2cccn3c(SC(F)(F)F)c(-c4noc(CNC(=O)c5ncn(C)n5)n4)cc23)[C@@H](F)C1 [Example 78] | < 750 nM | < 750 nM | < 10 nM
15 | CN1CC[C@@H](Nc2cccn3c(SC(F)(F)F)c(-c4noc(CNC(=O)c5cnn(C)n5)n4)cc23)[C@@H](F)C1 [Example 79] | < 750 nM | < 750 nM | < 10 nM
16 | CN1CC[C@@H](Nc2cccn3c(SC(F)(F)F)c(-c4noc(CNC(=O)c5cnn[nH]5)n4)cc23)[C@@H](F)C1 [Example 80] | 1500 to 3000 nM | 1500 to 3000 nM | < 10 nM
17 | CNC(=O)c1coc(NCc2nc(-c3cc4c(N[C@@H]5CCN(C)C[C@@H]5F)cccn4c3SC(F)(F)F)no2)n1 [Example 81] | 750 to 1500 nM | < 750 nM | < 10 nM
18 | CN1CC[C@@H](Nc2cccn3c(SC(F)(F)F)c(-c4noc(CNC(=O)c5nnc(N(C)C)s5)n4)cc23)[C@@H](F)C1 [Example 82] | < 750 nM | < 750 nM | < 10 nM
19 | CN1CC[C@@H](Nc2cccn3c(SC(F)(F)F)c(-c4noc(CNC(=O)c5nnc[nH]5)n4)cc23)[C@@H](F)C1 [Example 83] | 750 to 1500 nM | – | –
20 | CN1CC[C@@H](Nc2cccn3c(SC(F)(F)F)c(-c4cnc(CNC(=O)C5CC5)o4)cc23)[C@@H](F)C1 [Example 84] | ≥ 3000 nM | ≥ 3000 nM | 10 to 100 nM
21 | CN1CC[C@@H](Nc2cccn3c(SC(F)(F)F)c(-c4noc(CNC(=O)c5ccn(C)c5)n4)cc23)[C@@H](F)C1 [Example 86] | – | < 750 nM | < 10 nM
22 | CN1CC[C@@H](Nc2cccn3c(SC(F)(F)F)c(-c4cc(CNC(=O)C5CC5)no4)cc23)[C@@H](F)C1 [Example 87] | – | 750 to 1500 nM | < 10 nM
23 | CN1CC[C@@H](Nc2cccn3c(SC(F)(F)F)c(-c4cc(CNC(=O)c5cnn(C(C)(C)C)c5)on4)cc23)[C@@H](F)C1 [Example 88] | – | < 750 nM | 10 to 100 nM
24 | CN1CC[C@@H](Nc2cccn3c(SC(F)(F)F)c(-c4cc(CNC(=O)c5cnc(N(C)C)o5)no4)cc23)[C@@H](F)C1 [Example 90] | – | < 750 nM | < 10 nM
25 | CN1CC[C@@H](Nc2cccn3c(SC(F)(F)F)c(-c4noc(CNC(=O)c5noc(N(C)C)n5)n4)cc23)[C@@H](F)C1 [Example 91] | – | < 750 nM | < 10 nM
26 | CN1CC[C@@H](Nc2cccn3c(SC(F)(F)F)c(-c4cc(CNC(=O)c5cnc(N(C)C)s5)no4)cc23)[C@@H](F)C1 [Example 92] | – | < 750 nM | < 10 nM
27 | CN1CC[C@@H](Nc2cccn3c(SC(F)(F)F)c(-c4noc(CNC(=O)c5ccn(CC(C)(C)O)c5)n4)cc23)[C@@H](F)C1 [Example 95] | – | < 750 nM | < 10 nM
28 | CN1CC[C@@H](Nc2cccn3c(SC(F)(F)F)c(-c4noc(CNC(=O)c5ccn(CCF)c5)n4)cc23)[C@@H](F)C1 [Example 96] | – | < 750 nM | < 10 nM
29 | COCC1(n2ccc(C(=O)NCc3nc(-c4cc5c(N[C@@H]6CCN(C)C[C@@H]6F)cccn5c4SC(F)(F)F)no3)c2)CC1 [Example 97] | – | < 750 nM | < 10 nM
